According to patent US12398400B2, “Herbicide-resistant acetyl-CoA carboxylase (ACC) mutant and use thereof” (priority 2020, dated 2025):

Experiments:
Type in all cases: in vivo
[1] = tested on: I1879V edited Oryza sativa plants; test: Herbicide spray tolerance of I1879V edited plants; conditions: for tolerance compared with wild-type control: 5 g.a.i./mu, FIG. 6; for phytotoxicity observed: field seedlings
Procedure: (§1) Multiple Oryza sativa varieties such as Wanzhijing 006, Nanjing 9108, and Jiahe 218 were used as experimental materials. The base editor constructed above was transformed into the Oryza sativa plants by A. tumefaciens to obtain gene-edited plants. Emerging seedlings were screened with a sethoxydim-containing medium at a concentration of SET-2: 2 mg/L. Or, edited seedlings were planted in a cultivation room. The edited seedlings and the control plants were sprayed with sethoxydim at a concentration of 0.5 g/L (corresponding to a field application dosage of 10 g. a.i/mu), and a survival rate of the seedlings was counted 10 d later.
(§2) For I1879V edited Oryza sativa plants, the dosage of sethoxydim was further increased to a corresponding field application dosage of 15 g. a.i/mu. The dosage of sethoxydim was further increased to 30 g. a.i/mu.
(§3) The I1879V and C2186R edited Oryza sativa plants obtained in Example 1 were planted, and the resistance to other types of herbicides was tested, such as phenthodim, quizalofop-p, fenoxaprop-p-ethyl, clethodim, haloxyfop-p-methyl, fenoxaprop, and butyclofen.
(§4) Dibble Oryza sativa plants at the seedling stage in the field were selected and sprayed with phenthodim at 20 g.a.i./mu (4 times a recommended dosage), and then results were observed.
(§5) Quizalofop-p and fenoxaprop-p-ethyl were each applied at 5 g.a.i./mu to I1879V edited plants and C2186R edited plants, and results were observed 14 d later.
The tolerance of the I1879V edited plants to clethodim, haloxyfop-p-methyl, fenoxaprop, and butyclofen was tested, where the clethodim, haloxyfop-p-methyl, and fenoxaprop were each applied at concentrations of 5 g.a.i./mu (1×) and 10 g.a.i./mu (2×); and the butyclofen was applied at concentrations of 10 g.a.i./mu (1×) and 20 g.a.i./mu (2×). After the herbicide was applied for 20 d, the growth of the edited plants was observed and the herbicide resistance of the edited plants was counted.

[2] = tested on: C2186R edited Oryza sativa plants; test: Herbicide spray tolerance of C2186R edited plants; conditions: for tolerance compared with wild-type control: 5 g.a.i./mu, 14 d later, FIG. 6
Procedure: as §1
(§6) Through screening cultivation, herbicide-resistant plants were screened out on a sethoxydim-containing medium. […] In addition, herbicide-resistant plants were also screened out in the cultivation room.
as §3, §4, §5

[3] = tested on: I1879V edited Oryza sativa plants; test: Screening of emerging seedlings on sethoxydim-containing medium; conditions: 2 mg/L, FIG. 2
Procedure: as §1, §6

[4] = tested on: wild-type Oryza sativa plants; test: Herbicide spray on wild-type control plants; conditions: for phytotoxicity observed: field seedlings
Procedure: as §1, §2, §4

[5] = 15 g. a.i/mu, 14 d later, FIG. 4
[6] = 20 g.a.i./mu (4 times recommended dosage), 7 d after spraying
[7] = 20 g.a.i./mu, 20 d after application, FIG. 5

With `C[C@@H](Oc1ccc(Oc2cnc3cc(Cl)ccc3n2)cc1)C(=O)O` [Quizalofop-p, quizalofop-p] as the molecule, how does the “tolerance compared with wild-type control” value ([1]; 14 d later) read?
Its value is “failed to produce tolerance”.

And the “tolerance compared with wild-type control” value [2]?
Its value is “failed to produce tolerance”.

For `CCOC(=O)[C@@H](C)Oc1ccc(Oc2nc3ccc(Cl)cc3o2)cc1` [fenoxaprop-p-ethyl], which “tolerance compared with wild-type control” value ([1]; 14 d later) is on record?
The value was “failed to produce tolerance”.

What about the “tolerance compared with wild-type control” value [2] of the same molecule?
The value was “failed to produce tolerance”.

How did the “herbicide tolerance of edited seedlings on herbicide-containing medium” value [3] turn out when `CCC/C(=N\OCC)C1=C(O)CC(CC(C)SCC)CC1=O` (stereo not drawn) [sethoxydim] was run?
The value was “able to tolerate the herbicide”.

And the “growth of edited material after herbicide” value [1, 5]?
The value was “grew normally”.

And the phytotoxicity ([1]; 30 g. a.i/mu, 20 d)?
The phytotoxicity was “about 30%”.

And the “herbicide tolerance of edited seedlings after spraying” value ([2]; sprayed at 0.5 g/L (field application dosage 10 g. a.i/mu), 10 d, FIG. 3)?
The value was “able to tolerate the herbicide”.

And the “state of control plants after herbicide” value [4, 5]?
The value was “obviously yellow and dead”.

What about the “survival of wild-type plants after herbicide” value ([4]; 30 g. a.i/mu, 20 d) of the same molecule?
Its value is “all wild-type plants died”.

With phenthodim as the molecule, how does the phytotoxicity observed [1, 6] read?
The phytotoxicity observed was “no visible phytotoxicity”.

And the phytotoxicity observed [1, 7]?
The phytotoxicity observed was “no obvious phytotoxicity”.

What about the phytotoxicity observed ([2]; 20 g.a.i./mu, field seedlings) of the same molecule?
The phytotoxicity observed was “obvious phytotoxicity”.

What about the phytotoxicity observed [4, 6] of the same molecule?
Its phytotoxicity observed is “obvious chlorosis and spots”.

And the phytotoxicity observed [4, 7]?
Its phytotoxicity observed is “serious phytotoxicity”.
